pIC50: −log10 of the molar value.
Experiments:
[1] = system: H1299 NSCLC (non-small cell lung cancer) cells; experiment: Cancer cell growth inhibition (MTS); type: cell-based; conditions: Homo sapiens, NCI-H1299, 48 hours, MTS reagent
Description: To investigate the inhibitory effect of the compounds of Examples of the present invention on cancer cell growth, the following experiment was performed. Particularly, H1299 NSCLC (non-small cell lung cancer) cells were distributed in a 96-well plate at the density of 5×10^3 cells/well, followed by culture in a 37° C., 5% CO2 incubator for 24 hours. The compound of each example was dissolved in DMSO (10 nM, 100 nM, 1 μM, 10 μM), which was treated to each well. 48 hours later, cell growth was measured by using MTS reagent (3-(4,5-dimethylthiazole-2-yl)-5-(3-carboxymethoxyphenyl)-2-(4-sulfophenyl)-2H-tetrazolium). The experiment was performed in triplicate and the standard error of the analysis result was corrected.

HIF-1α = HIF-1α inhibitory activity, hypoxia-response element-luciferase in HRE-A549 cells; type: cell-based; conditions: for pIC50: HRE-A549 cells, hypoxia-chamber 24 h, luciferase activity, read-out: IC50
Description: HRE-A549 cells stably transfected with hypoxia-response element-luciferase construct were incubated in Dulbecco's modified Eagle's medium. Following overnight serum deprivation, the cells were treated with or without Deguelin or example compounds. After 1 h incubation, the cells were incubated in hypoxia-chamber for 24 h at 37° C. Luciferase activity was measured by adding luciferase assay reagent (Promega, Madison, Wis.).

Row | Structure (SMILES) | pIC50 [1] | pIC50 (HIF-1α) | also measured
1 | COc1ccc(C(C)C(=O)c2ccc3c(c2OC)C=CC(C)(C)O3)cc1OC (stereo not drawn) [Example 29, 2-(3,4-Dimethoxyphenyl)-1-(5-methoxy-2,2-dimethyl-2H-chromen-6-yl)propan-1-one] | 6.14 | – | –
2 | COc1c(C(=O)Cc2ccc(F)cc2)ccc2c1C=CC(C)(C)O2 [Example 73, 2-(4-fluorophenyl)-1-(5-methoxy-2,2-dimethyl-2H-chromen-6-yl)ethanone] | – | 5.99 | –
3 | COc1c(C(=O)Cc2ccccc2O)ccc2c1C=CC(C)(C)O2 [Example 84, 2-(2-hydroxyphenyl)-1-(5-methoxy-2,2-dimethyl-2H-chromen-6-yl)ethanone] | – | 6.03 | –
4 | COc1c(C(=O)Cc2ccccc2Cl)ccc2c1C=CC(C)(C)O2 [Example 64, 2-(2-chlorophenyl)-1-(5-methoxy-2,2-dimethyl-2H-chromen-6-yl)ethanone] | – | 6.48 | –
5 | COc1c(C(=O)Cc2ccc3c(c2)OCCO3)ccc2c1C=CC(C)(C)O2 [Example 58, 2-(2,3-dihydrobenzo[b][1,4]dioxin-6-yl)-1-(5-methoxy-2,2-dimethyl-2H-chromen-6-yl)ethanone] | – | 5.87 | –
6 | COc1cc2c(cc1OC)[C@H](C(=O)c1ccc3c(c1)C=CC(C)(C)O3)CCO2 (stereo in doubt) [Example 26, (6,7-Dimethoxychroman-4-yl) (2,2-dimethyl-2H-chromen-6-yl)methanone] | 5.42 | – | –
7 | COc1cc2c(cc1OC)-c1c(oc3c4c(ccc3c1=O)OC(C)(C)C=C4)CO2 [Example 5, 9,10-Dimethoxy-3,3-dimethyl-3H-chromeno[3,4-b]pyrano[2,3-h]chromen-7-(13H)-one] | 5.00 | – | –
8 | COc1c(C(=O)Cc2cccc(F)c2)ccc2c1C=CC(C)(C)O2 [Example 66, 2-(3-fluorophenyl)-1-(5-methoxy-2,2-dimethyl-2H-chromen-6-yl)ethanone] | – | 6.44 | –
9 | COc1ccc(C(C)(C)C(=O)c2ccc3c(c2OC)C=CC(C)(C)O3)cc1OC [Example 30, 2-(3,4-Dimethoxyphenyl)-1-(5-methoxy-2,2-dimethyl-2H-chromen-6-yl)-2-methylpropan-1-one] | 5.49 | – | –
10 | COc1cc2c(cc1OC)[C@@H]1[C@H](OC(C)=O)c3ccc4c(c3O[C@@H]1CO2)C=CC(C)(C)O4 [Example 13, (7S,7aS,13aS)-9,10-Dimethoxy-3,3-dimethyl-7,7a,13,13a-tetrahydro-3H-chromeno[3,4-b]pyrano[2,3,h]chromen-7-yl acetate] | 6.17 | – | –
11 | COc1c(C(=O)Cc2ccccc2)ccc2c1C=CC(C)(C)O2 [Example 59, 1-(5-methoxy-2,2-dimethyl-2H-chromen-6-yl)-2-phenylethanone] | – | 6.05 | –
12 | COc1cc2c(cc1OC)[C@@H]1/C(=N/O)c3ccc4c(c3O[C@@H]1CO2)C=CC(C)(C)O4 [Example 16, (7aR,13aS)-9,10-Dimethoxy-3,3-dimethyl-13,13a-dihydro-3H-chromeno[3,4-b]pyrano[2,3-h]chromen-7(7aH)-one oxime] | 6.52 | – | –
13 | COc1c(C(=O)Cc2ccccc2F)ccc2c1C=CC(C)(C)O2 [Example 67, 2-(2-fluorophenyl)-1-(5-methoxy-2,2-dimethyl-2H-chromen-6-yl)ethanone] | – | 7.10 | times lower concentration compared to Comparative Example 1 (Deguelin) (HIF-1α; HIF-1α inhibition, HRE-A549): 2
14 | COc1ccc([C@H]2COc3c(ccc4c3C=CC(C)(C)O4)C2=O)cc1OC [Example 25, (3S)-3-(3,4-Dimethoxyphenyl)-8,8-dimethyl-2,3-dihydro-4H,8H-pyrano[2,3-f]chromen-4-one] | 5.35 | – | –
15 | COc1cc2c(cc1OC)[C@@H]1Cc3ccc4c(c3O[C@@H]1CO2)C=CC(C)(C)O4 [Example 7, (7aS,13aS)-9,10-Dimethoxy-3,3-dimethyl-7,7a,13,13a-tetrahydro-3H-chromeno[3,4-b]pyrano[2,3-h]chromene] | 5.38 | – | –
16 | COc1ccc(CC(=O)c2ccc3c(c2)C=CC(C)(C)O3)cc1OC [Example 27, 2-(3,4-Dimethoxyphenyl)-1-(2,2-dimethyl-2H-chromen-6-yl)ethanone] | 6.00 | – | –
17 | CO/N=C1\c2ccc3c(c2O[C@@H]2COc4cc(OC)c(OC)cc4[C@H]12)C=CC(C)(C)O3 [Example 17, (7aR,13aS)-9,10-Dimethoxy-3,3-dimethyl-13,13a-dihydro-3H-chromeno[3,4-b]pyrano[2,3-h]chromen-7(7aH)-one O-methyloxime] | 5.37 | – | –
18 | COc1c(C(=O)Cc2ccc(C(F)(F)F)cc2)ccc2c1C=CC(C)(C)O2 [Example 75, 1-(5-methoxy-2,2-dimethyl-2H-chromen-6-yl)-2-(4-(trifluoromethyl)phenyl)ethanone] | – | 6.22 | –
19 | CC1(C)C=Cc2c(ccc3c2O[C@@H]2COc4cc(O)c(O)cc4[C@@H]2C3=O)O1 [Example 4, (7aS,13aS)-13,13a-Dihydro-9,10-dihydroxy-3,3-dimethyl-3H-chromeno[3,4-b]pyrano[2,3-h]chromen-7(7aH)-one] | 6.01 | – | –
20 | COc1c(C(=O)Cc2ccc(C#N)cc2)ccc2c1C=CC(C)(C)O2 [Example 72, 4-(2-(5-methoxy-2,2-dimethyl-2H-chromen-6-yl)-2-oxoethyl)benzonitrile] | – | 5.90 | –
21 | COc1cccc(CC(=O)c2ccc3c(c2OC)C=CC(C)(C)O3)c1 [Example 76, 1-(5-methoxy-2,2-dimethyl-2H-chromen-6-yl)-2-(3-methoxyphenyl)ethanone] | – | 6.08 | –
22 | COc1cc2c(cc1OC)[C@@H]1C(=O)c3ccc(OC)c(CC=C(C)C)c3O[C@@H]1CO2 [Example 21, 2,3,9-Trimethoxy-8-(3-methyl-but-2-enyl)-6a,12a-dihydro-6H-chromeno[3,4-b]chromen-12-one] | 5.28 | – | –
23 | CCCO[C@@H]1c2ccc3c(c2O[C@@H]2COc4cc(OC)c(OC)cc4[C@H]12)C=CC(C)(C)O3 [Example 10, (7S,7aR,3aS)-9,10-Dimethoxy-3,3-dimethyl-7-propoxy-7,7a,13,13a-tetrahydro-3H-chromeno[3,4-b]pyrano[2,3-h]chromene] | 4.98 | – | –
24 | COc1c(C(=O)Cc2ccc(F)c(F)c2)ccc2c1C=CC(C)(C)O2 [Example 56, 2-(3,4-difluorophenyl)-1-(5-methoxy-2,2-dimethyl-2H-chromen-6-yl)ethanone] | – | 5.89 | –
25 | COc1c(C(=O)Cc2cccc(Cl)c2)ccc2c1C=CC(C)(C)O2 [Example 68, 2-(3-chlorophenyl)-1-(5-methoxy-2,2-dimethyl-2H-chromen-6-yl)ethanone] | – | 6.21 | –
26 | CCO[C@@H]1c2ccc3c(c2O[C@@H]2COc4cc(OC)c(OC)cc4[C@H]12)C=CC(C)(C)O3 [Example 9, (7S,7aR,3aS)-9,10-Dimethoxy-3,3-dimethyl-7-ethoxy-7,7a,13,13a-tetrahydro-3H-chromeno[3,4-b]pyrano[2,3-h]chromene] | 5.01 | – | –
27 | COc1ccc([C@H](C)C(=O)c2ccc3c(c2OC)C=CC(C)(C)O3)cc1OC [Example 33, (S)-2-(3,4-Dimethoxyphenyl)-1-(5-methoxy-2,2-dimethyl-2H-chromen-6-yl)propan-1-one] | 6.31 | – | –
28 | COc1ccc(C2(C(=O)c3ccc4c(c3OC)C=CC(C)(C)O4)CC2)cc1OC [Example 32] | 3.99 | – | –
29 | COc1ccc([C@@H](C)C(=O)c2ccc3c(c2OC)C=CC(C)(C)O3)cc1OC [Example 34, (R)-2-(3,4-Dimethoxyphenyl)-1-(5-methoxy-2,2-dimethyl-2H-chromen-6-yl)propan-1-one] | 5.89 | – | –

From patent US9745280B2, “Compound or pharmaceutically acceptable salt thereof, and pharmaceutical composition containing same as active ingredient” (SNU R&DB FOUNDATION, priority 2012, dated 2017)
